Assay type in all cases: biochemical
Assay [1] concerns the target T1, human JAK1 (a.a. 837-1142) (Homo sapiens, UniProt P23458).
T1 construct: human JAK1 (a.a. 837-1142); His tag (N); made in house; host or cells: insect cells (baculovirus)
The assay is described as follows: In vitro JAK kinase assay (HTRF, phosphorylation of a biotinylated peptide), JAK1. The following applies: read-out: JAK1 IC50. The method, boiled down: (§1)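 Kinase reactions ran at room temperature for 1 h with ATP matched per isoform (JAK1 90 μM, JAK2 30 μM, JAK3 3 μM). After an EDTA stop, the phosphorylated biotin-peptide was read by HTRF using Eu-Py20 and SA-APC after 40 min binding.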
Background: TR-FRET usually uses a lanthanide donor and a delayed reading to cut background.

Assay [2] addresses T2, human JAK2 (a.a. 828-1132) (Homo sapiens, UniProt O60674).
T2 construct: JAK2 (a.a. 828-1132); His tag (N); made in house; host or cells: insect cells (baculovirus)
The assay can be described thus: In vitro JAK kinase assay (HTRF, phosphorylation of a biotinylated peptide), JAK2. The method, boiled down: as §1

The target in assay [3] is T3, human JAK3 (a.a. 781-1124) (Homo sapiens, UniProt P52333).
T3 construct: JAK3 (a.a. 781-1124); His tag (N); made in house; host or cells: insect cells (baculovirus)
T3 sequence (P52333 781-1124): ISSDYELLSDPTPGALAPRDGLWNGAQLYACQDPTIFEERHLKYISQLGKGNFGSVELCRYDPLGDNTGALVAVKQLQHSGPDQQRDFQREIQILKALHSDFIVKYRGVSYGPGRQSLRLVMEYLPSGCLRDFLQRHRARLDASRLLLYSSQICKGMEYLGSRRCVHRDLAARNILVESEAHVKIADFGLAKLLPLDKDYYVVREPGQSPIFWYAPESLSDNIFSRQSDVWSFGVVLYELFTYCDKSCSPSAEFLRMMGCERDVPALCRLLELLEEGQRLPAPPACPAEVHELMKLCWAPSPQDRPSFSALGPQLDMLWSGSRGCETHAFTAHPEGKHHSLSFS
The assay can be described thus: In vitro JAK kinase assay (HTRF, phosphorylation of a biotinylated peptide), JAK3. The method, boiled down: as §1

Assay [4] concerns the target TYK2 (Homo sapiens, UniProt P29597). The assay is described as follows: TYK2 kinase inhibition (Table A1).
Assay [5] deals with T4, Recombinant Human Anaplastic Lymphoma Kinase (Homo sapiens, UniProt Q9UM73).
T4 construct: purchased Invitrogen, Carlsbad, Calif
T4 sequence (Q9UM73 19-1620): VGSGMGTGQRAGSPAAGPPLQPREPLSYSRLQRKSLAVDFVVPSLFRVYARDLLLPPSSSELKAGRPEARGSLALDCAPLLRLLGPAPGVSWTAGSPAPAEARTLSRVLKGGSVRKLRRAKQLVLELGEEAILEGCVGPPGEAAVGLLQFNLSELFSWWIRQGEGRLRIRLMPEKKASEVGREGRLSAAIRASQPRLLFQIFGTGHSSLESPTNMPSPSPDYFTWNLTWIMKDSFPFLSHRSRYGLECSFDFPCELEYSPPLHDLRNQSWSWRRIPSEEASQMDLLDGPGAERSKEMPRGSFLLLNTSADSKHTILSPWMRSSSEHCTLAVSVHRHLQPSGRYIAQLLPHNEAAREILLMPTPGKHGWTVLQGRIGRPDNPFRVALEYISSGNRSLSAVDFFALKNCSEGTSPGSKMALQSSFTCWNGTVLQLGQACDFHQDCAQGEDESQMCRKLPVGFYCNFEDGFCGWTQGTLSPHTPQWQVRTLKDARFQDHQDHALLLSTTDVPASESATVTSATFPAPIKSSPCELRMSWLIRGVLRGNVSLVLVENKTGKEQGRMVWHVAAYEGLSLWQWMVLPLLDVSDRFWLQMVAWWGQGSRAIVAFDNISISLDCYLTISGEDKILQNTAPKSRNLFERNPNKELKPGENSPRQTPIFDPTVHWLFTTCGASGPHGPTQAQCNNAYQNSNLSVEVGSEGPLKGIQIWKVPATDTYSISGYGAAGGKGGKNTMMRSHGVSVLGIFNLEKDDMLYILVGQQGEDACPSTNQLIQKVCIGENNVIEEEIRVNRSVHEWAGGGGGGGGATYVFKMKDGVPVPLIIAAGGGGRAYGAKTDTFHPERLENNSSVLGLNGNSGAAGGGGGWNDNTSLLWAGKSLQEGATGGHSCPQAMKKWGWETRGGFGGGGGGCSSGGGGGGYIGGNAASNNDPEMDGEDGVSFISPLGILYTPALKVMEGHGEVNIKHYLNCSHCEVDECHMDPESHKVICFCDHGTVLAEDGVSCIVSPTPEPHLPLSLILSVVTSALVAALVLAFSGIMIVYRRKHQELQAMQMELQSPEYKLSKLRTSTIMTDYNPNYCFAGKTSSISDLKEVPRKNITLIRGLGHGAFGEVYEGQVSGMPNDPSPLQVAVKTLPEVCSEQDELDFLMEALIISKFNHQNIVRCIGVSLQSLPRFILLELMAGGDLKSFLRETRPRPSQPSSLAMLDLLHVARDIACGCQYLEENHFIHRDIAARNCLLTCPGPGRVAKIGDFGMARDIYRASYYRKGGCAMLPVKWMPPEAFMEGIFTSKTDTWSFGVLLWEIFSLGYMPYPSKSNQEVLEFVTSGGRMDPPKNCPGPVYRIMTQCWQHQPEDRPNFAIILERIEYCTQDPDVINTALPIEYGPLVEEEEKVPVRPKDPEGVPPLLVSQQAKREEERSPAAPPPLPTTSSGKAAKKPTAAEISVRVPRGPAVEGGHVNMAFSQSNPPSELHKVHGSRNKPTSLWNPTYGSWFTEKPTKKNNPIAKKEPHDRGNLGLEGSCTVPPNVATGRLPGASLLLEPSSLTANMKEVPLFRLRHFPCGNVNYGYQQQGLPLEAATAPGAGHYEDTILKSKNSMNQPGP
The assay is described as follows: ALK HTRF kinase assay. The method, boiled down:
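IC50 was obtained from a logistic fit of signal versus log inhibitor concentration, using pre- and post-transition baselines and a Hill slope. The signal reported tyrosine phosphorylation of a biotinylated peptide by recombinant human kinase, detected as Eu-to-APC energy transfer.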

The mark [6] stands for this setting: Table B1, cells without percent sign.
Where [7] appears, read: method AA1 (90 μM ATP) or AA2 (1000 μM ATP), not stated per value.
The mark [8] stands for this setting: method AA1 (30 μM ATP) or AA2 (1000 μM ATP), not stated per value.
[9] abbreviates: method AA1 (3 μM ATP) or AA2 (1000 μM ATP), not stated per value.
[10] abbreviates: compound at 500 nM or 1 mM, 90 μM ATP.
Setting [11] is: compound at a concentration of 500 nM or 1 mM (not specified), cells shown as percentage.

Where a name gives a salt, the structure may show the parent alone. Read-outs that look alike come from different tables or passages of the source. Where only a bound is given, the exact number is not on record here.

Sequence of TYK2 (P29597 whole entry): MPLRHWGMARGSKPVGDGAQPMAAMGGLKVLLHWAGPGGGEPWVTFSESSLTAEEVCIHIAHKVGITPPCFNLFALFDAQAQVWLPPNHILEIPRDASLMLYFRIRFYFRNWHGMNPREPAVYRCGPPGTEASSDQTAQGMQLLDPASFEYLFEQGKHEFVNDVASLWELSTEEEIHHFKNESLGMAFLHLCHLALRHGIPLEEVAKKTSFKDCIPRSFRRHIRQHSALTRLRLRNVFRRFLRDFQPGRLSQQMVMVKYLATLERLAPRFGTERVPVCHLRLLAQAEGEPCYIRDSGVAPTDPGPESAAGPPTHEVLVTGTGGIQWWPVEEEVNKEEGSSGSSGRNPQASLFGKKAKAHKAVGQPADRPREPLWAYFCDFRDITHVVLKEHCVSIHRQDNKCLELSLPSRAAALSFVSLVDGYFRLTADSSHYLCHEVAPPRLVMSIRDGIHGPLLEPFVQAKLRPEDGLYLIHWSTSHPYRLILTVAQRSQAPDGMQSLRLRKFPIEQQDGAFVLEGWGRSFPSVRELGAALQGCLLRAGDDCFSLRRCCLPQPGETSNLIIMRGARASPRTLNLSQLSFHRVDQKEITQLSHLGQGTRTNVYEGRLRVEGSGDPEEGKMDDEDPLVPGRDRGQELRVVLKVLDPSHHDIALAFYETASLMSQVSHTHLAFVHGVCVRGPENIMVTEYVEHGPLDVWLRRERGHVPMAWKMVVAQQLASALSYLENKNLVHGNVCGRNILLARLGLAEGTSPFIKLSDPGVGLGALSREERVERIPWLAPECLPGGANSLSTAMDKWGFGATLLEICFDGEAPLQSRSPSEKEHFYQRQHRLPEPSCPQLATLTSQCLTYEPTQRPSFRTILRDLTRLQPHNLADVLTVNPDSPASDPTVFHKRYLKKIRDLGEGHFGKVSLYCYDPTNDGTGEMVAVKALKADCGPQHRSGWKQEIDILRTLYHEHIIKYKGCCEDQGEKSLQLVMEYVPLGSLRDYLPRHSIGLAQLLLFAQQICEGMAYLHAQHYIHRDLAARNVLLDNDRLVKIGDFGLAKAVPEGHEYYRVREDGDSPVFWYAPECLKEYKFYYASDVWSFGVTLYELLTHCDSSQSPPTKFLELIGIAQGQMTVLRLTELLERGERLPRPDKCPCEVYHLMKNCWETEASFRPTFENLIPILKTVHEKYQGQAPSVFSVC
T1 sequence (P23458 849-1154): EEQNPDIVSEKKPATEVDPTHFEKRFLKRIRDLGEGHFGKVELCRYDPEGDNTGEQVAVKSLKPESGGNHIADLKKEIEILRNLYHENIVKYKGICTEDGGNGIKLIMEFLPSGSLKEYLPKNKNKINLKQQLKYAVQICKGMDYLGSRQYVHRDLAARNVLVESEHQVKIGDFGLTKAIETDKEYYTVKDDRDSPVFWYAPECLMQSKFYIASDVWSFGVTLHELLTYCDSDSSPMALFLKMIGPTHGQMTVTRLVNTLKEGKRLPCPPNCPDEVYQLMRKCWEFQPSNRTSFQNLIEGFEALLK
T2 sequence (O60674 828-1132): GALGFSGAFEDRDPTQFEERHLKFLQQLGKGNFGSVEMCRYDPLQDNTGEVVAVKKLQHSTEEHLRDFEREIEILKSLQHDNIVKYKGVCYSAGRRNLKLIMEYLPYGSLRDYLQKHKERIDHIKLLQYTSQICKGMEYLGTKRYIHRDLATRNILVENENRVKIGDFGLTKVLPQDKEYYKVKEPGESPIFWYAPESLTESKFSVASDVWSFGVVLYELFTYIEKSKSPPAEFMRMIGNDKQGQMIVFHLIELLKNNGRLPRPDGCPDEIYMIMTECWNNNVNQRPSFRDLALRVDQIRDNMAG

What is called IC50 is the point on the concentration scale where inhibition reaches its midpoint. Turning to `O=C(Nc1ccccc1Cl)Nc1ccc2cc1CCc1cccc(c1)Nc1ncc(Cl)c(n1)N2` [Example B84, N-(2-Chlorophenyl)-N′-[6-chloro-2,4,8,22-tetraazatetracyclo[14.3.1.1(3,7).1(9,13)]docosa-1(20),3(22),4,6,9(21),10,12,16,18-nonaen-12-yl]urea trifluoroacetate], the IC50 stood at 0.00039 µM in assay [1] (Table B1); 0.0013 µM in assay [2] (Table B1); 0.0097 µM in assay [3] (Table B1); 0.0042 µM in assay [4] (Table B1); 0.73 µM in assay [5] (setting [6]).

With `O=C(COc1ccc2cc1CCc1cccc(c1)Nc1ncc(Cl)c(n1)N2)Nc1ccccc1` [Example A18, 2-{[6-Chloro-2,4,8,22-tetraazatetracyclo[14.3.1.1(3,7).1(9,13)]docosa-1(20),3(22),4,6,9(21),10,12,16,18-nonaen-12-yl]oxy}-N-phenylacetamide trifluoroacetate], the IC50 in assay [1] (setting [7]) amounted to 0.0045 µM; in assay [2] (setting [8]), 0.0033 µM; in assay [3] (setting [9]), 0.023 µM; in assay [4], 0.011 µM. The “ALK % of inhibition at a concentration of 500 nM or 1 mM” value (shortened to “ALK % of inhibition”) in assay [5] (setting [10]) worked out at 59%.

As for `O=C1NCc2cccc(c2)Nc2nc(ncc2Cl)Nc2cccc1c2` [Example C5, 6-Chloro-2,4,8,15,23-pentaazatetracyclo[15.3.1.1(3,7).1(9,13)]tricosa-1(21),3(23),4,6,9(22),10,12,17,19-nonaen-16-one hydrochloride], the IC50 in assay [1], in assay [2], in assay [3], in assay [4] and in assay [5] was above 1 µM each time.

On to `O=C(Nc1ccc2cc1CCc1cccc(c1)Nc1ncc(Cl)c(n1)N2)Nc1cccc2c1CCCC2` [Example B109, N-[6-Chloro-2,4,8,22-tetraazatetracyclo[14.3.1.1(3,7).1(9,13)]docosa-1(20),3(22),4,6,9(21),10,12,16,18-nonaen-12-yl]-N′-(5,6,7,8-tetrahydronaphthalen-1-yl)urea trifluoroacetate], for which the IC50 was determined as 0.0096 µM in assay [1] (Table B1), 0.056 µM in assay [2] (Table B1), 0.261 µM in assay [3] (Table B1) and 0.072 µM in assay [4] (Table B1). In addition, in assay [5] (setting [11]), the “ALK % of inhibition” value came out at 0%.

Regarding `O=C(Nc1ccc2[nH]ccc2c1)c1cc2cc(c1)OCCSc1cccc(c1)Nc1nc(ncc1Cl)N2` [Example D56, 6-Chloro-N-1H-indol-5-yl-17-oxa-14-thia-2,4,8,24-tetraazatetracyclo[16.3.1.1(3,7).1(9,13)]tetracosa-1(22),3(24),4,6,9(23),10,12,18,20-nonaene-20-carboxamide trifluoroacetate], the IC50 in assay [1] (Table D1) was found to be 0.01 µM; in assay [2] (Table D1), 0.0048 µM; in assay [3] (Table D1) it was 0.042 µM; in assay [4] (Table D1), 0.014 µM; in assay [5] (Table D1, 90 μM ATP), 1.94 µM.

`Clc1cnc2nc1Nc1cccc(c1)OCCc1cc(cc(-c3ccnc(N4CCNCC4)c3)c1)N2` [Example D27, 6-Chloro-19-(2-piperazin-1-ylpyridin-4-yl)-14-oxa-2,4,8,23-tetraazatetracyclo[15.3.1.1(3,7).1(9,13)]tricosa-1(21),3(23),4,6,9(22),10,12,17,19-nonaene tris(trifluoroacetate)]: the IC50 in assay [1] (Table D1) stood at 0.0015 µM; in assay [2] (Table D1), 0.0003 µM; in assay [3] (Table D1), 0.0035 µM; in assay [4] (Table D1), 0.0039 µM; in assay [5] (Table D1, 90 μM ATP), 0.032 µM.

As for `CCNC(=O)N1CCN(C(=O)COc2ccc3cc2CCc2cccc(c2)Nc2ncc(Cl)c(n2)N3)CC1` [Example A12, trifluoroacetate], the IC50 in assay [1] (setting [7]) is 0.0094 µM; in assay [2] (setting [8]), 0.011 µM; in assay [3] (setting [9]), 0.065 µM; in assay [4] it was 0.03 µM. Besides, the “ALK % of inhibition” value in assay [5] (setting [10]) came out at 17%.

With `Cc1cc(C(=O)N2CCC(CC(=O)Nc3ccc4cc3CCc3cncc(c3)Nc3ncc(Cl)c(n3)N4)CC2)no1` [Example A101, N-[6-Chloro-2,4,8,18,22-pentaazatetracyclo[14.3.1.1(3,7).1(9,13)]docosa-1(20),3(22),4,6,9(21),10,12,16,18-nonaen-12-yl]-2-{1-[(5-methylisoxazol-3-yl)carbonyl]piperidin-4-yl}acetamide bis(trifluoroacetate)], the IC50 came out at 0.0005 µM in assay [1] (setting [7]), 0.01 µM in assay [2] (setting [8]), 0.128 µM in assay [3] (setting [9]) and 0.0034 µM in assay [4]. Besides, the “ALK % of inhibition” value in assay [5] (setting [10]) is recorded as 29%.

For `O=C(CC1CCN(C(=O)NCc2ccccc2)CC1)Nc1ccc2cc1CCc1cncc(c1)Nc1ncc(Cl)c(n1)N2` [Example A155, N-Benzyl-4-(2-{[6-chloro-2,4,8,18,22-pentaazatetracyclo[14.3.1.1(3,7).1(9,13)]docosa-1(20),3(22),4,6,9(21),10,12,16,18-nonaen-12-yl]amino}-2-oxoethyl)piperidine-1-carboxamide bis(trifluoroacetate)], the IC50 was 0.0024 µM in assay [1] (setting [7]), 0.0042 µM in assay [2] (setting [8]), above 0.1 µM in assay [3] (setting [9]) and 0.0038 µM in assay [4]. Moreover, in assay [5] (setting [10]), the “ALK % of inhibition” value was determined as 47%.

With `CS(=O)(=O)Nc1ccc2cc1CCc1cccc(c1)Nc1ncc(Cl)c(n1)N2` [Example B140, N-[6-Chloro-2,4,8,22-tetraazatetracyclo[14.3.1.1(3,7).1(9,13)]docosa-1(20), 3(22),4,6,9(21),10,12,16,18-nonaen-12-yl]methanesulfonamide trifluoroacetate], the IC50 in assay [1] (Table B1) turned out to be 0.00051 µM; in assay [2] (Table B1), 0.0002 µM; in assay [3] (Table B1), 0.0013 µM; in assay [4] (Table B1), 0.00089 µM; in assay [5] (setting [6]), 0.15 µM.

In the case of `COc1ccc(C(=O)Nc2ccc3cc2CCc2cccc(c2)Nc2ncc(Cl)c(n2)N3)cc1` [Example B67, N-[6-Chloro-2,4,8,22-tetraazatetracyclo[14.3.1.1(3,7).1(9,13)]docosa-1(20), 3(22),4,6,9(21),10,12,16,18-nonaen-12-yl]-4-methoxybenzamide trifluoroacetate], the IC50 came out at 0.0032 µM in assay [1] (Table B1); 0.0019 µM in assay [2] (Table B1); 0.015 µM in assay [3] (Table B1); 0.006 µM in assay [4] (Table B1); 0.22 µM in assay [5] (setting [6]).

Turning to `CCNC(=O)N1CCC(CC(=O)Nc2ccc3cc2CCc2cccc(c2)Nc2ncc(Cl)c(n2)N3)CC1` [Example A57, 4-(2-{[6-Chloro-2,4,8,22-tetraazatetracyclo[14.3.1.1(3,7).1(9,13)]docosa-1(20),3(22),4,6,9(21),10,12,16,18-nonaen-12-yl]amino}-2-oxoethyl)-N-ethylpiperidine-1-carboxamide trifluoroacetate], the IC50 in assay [1] (setting [7]) is 0.0055 µM; in assay [2] (setting [8]) it was 0.0073 µM; in assay [3] (setting [9]), 0.06 µM; in assay [4] it was 0.0088 µM. Also, the “ALK % of inhibition” value in assay [5] (setting [10]) came out at 24%.

In the case of `Oc1ccnc(Nc2ccc3cc2CCc2cccc(c2)Nc2ncc(Cl)c(n2)N3)n1` [Example B277, 2-{[6-Chloro-2,4,8,22-tetraazatetracyclo[14.3.1.1(3,7).1(9,13)]docosa-1(20),3(22),4,6,9(21),10,12,16,18-nonaen-12-yl]amino}pyrimidin-4-ol bis(trifluoroacetate)], the IC50 was 0.0048 µM in assay [1] (Table B1), 0.0059 µM in assay [2] (Table B1), 0.359 µM in assay [3] (Table B1) and 0.062 µM in assay [4] (Table B1). In assay [5] (setting [11]), the “ALK % of inhibition” value was 54%.

With `Cn1cc(C(=O)N2CCC(CC(=O)Nc3ccc4cc3CCc3cncc(c3)Nc3ncc(Cl)c(n3)N4)CC2)cn1` [Example A129, N-[6-Chloro-2,4,8,18,22-pentaazatetracyclo[14.3.1.1(3,7).1(9,13)]docosa-1(20),3(22),4,6,9(21),10,12,16,18-nonaen-12-yl]-2-{1-[(1-methyl-1H-pyrazol-4-yl)carbonyl]piperidin-4-yl}acetamide bis(trifluoroacetate)], the IC50 in assay [1] (setting [7]) came to 0.012 µM; in assay [2] (setting [8]) it was 0.017 µM; in assay [3] (setting [9]) it was 0.178 µM; in assay [4], 0.024 µM. The “ALK % of inhibition” value in assay [5] (setting [10]) was found to be 32%.

On to `O=C(Nc1ccc2cc1CCc1cncc(c1)Nc1ncc(Cl)c(n1)N2)N1CCn2c(nnc2C(F)(F)F)C1` [Example B316, N-[6-Chloro-2,4,8,18,22-pentaazatetracyclo[14.3.1.1(3,7).1(9,13)]docosa-1(20),3(22),4,6,9(21),10,12,16,18-nonaen-12-yl]-3-(trifluoromethyl)-5,6-dihydro[1,2,4]triazolo[4,3-a]pyrazine-7(8H)-carboxamide tris(trifluoroacetate)], for which the IC50 in assay [1] (Table B1) is 0.016 µM; in assay [2] (Table B1), 0.18 µM; in assay [3] (Table B1) it was above 0.4 µM; in assay [4] (Table B1), 0.208 µM. Besides, the “ALK % of inhibition” value in assay [5] (percentage inhibition of the example compound at a concentration of 500 nM or 1 mM (not specified which)) was found to be 64%.

These data come from US8871753B2, “Macrocyclic compounds and their use as kinase inhibitors” (Incyte Corporation, priority 2008, dated 2014).
